“And” between values parts separate entries of the source, which are not always exact repeats. Identical values can stand only once.
How the values were obtained:
[1] = tested on: L6; assay: Cytotoxicity against rat L6 cells; type: cell-based
[2] = target: T1, Arabinose 5-phosphate isomerase KdsD (Francisella tularensis subsp. tularensis (strain SCHU S4 / Schu 4), UniProt Q5NGP7)
T1 sequence (Q5NGP7 whole entry): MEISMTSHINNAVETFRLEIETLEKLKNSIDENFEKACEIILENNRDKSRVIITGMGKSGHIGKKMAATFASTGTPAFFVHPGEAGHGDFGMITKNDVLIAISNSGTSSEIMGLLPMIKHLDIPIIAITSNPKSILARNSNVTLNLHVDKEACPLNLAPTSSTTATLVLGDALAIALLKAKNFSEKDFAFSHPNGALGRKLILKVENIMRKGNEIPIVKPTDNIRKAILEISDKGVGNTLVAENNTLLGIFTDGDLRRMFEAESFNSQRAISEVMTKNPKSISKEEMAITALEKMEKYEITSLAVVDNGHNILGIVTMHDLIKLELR

[3] = tested on: Trypanosoma brucei; assay: Antiparasitic activity against Trypanosoma brucei infected in rat L6 cells; type: functional
[4] = target: T2, Ribose-5-phosphate isomerase B (Mycobacterium tuberculosis, UniProt P9WKD7); assay: Inhibition of Mycobacterium tuberculosis rpiB
T2 sequence (P9WKD7 whole entry): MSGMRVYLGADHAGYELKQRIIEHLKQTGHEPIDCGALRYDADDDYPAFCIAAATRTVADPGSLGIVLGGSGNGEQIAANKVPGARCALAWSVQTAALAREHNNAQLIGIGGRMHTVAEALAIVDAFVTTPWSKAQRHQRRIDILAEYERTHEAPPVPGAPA

[5] = Inhibition of Escherichia coli arabinose phosphate isomerase
[6] = Inhibition of xylose isomerase
[7] = target: Glucose-6-phosphate isomerase (Oryctolagus cuniculus, UniProt Q9N1E2); assay: Inhibition of rabbit cytosolic phosphoglucose isomerase
[8] = target: Triosephosphate isomerase (Homo sapiens, UniProt P60174); assay: Inhibition of Triosephosphate isomerase
Sequence of Triosephosphate isomerase (P60174 whole entry): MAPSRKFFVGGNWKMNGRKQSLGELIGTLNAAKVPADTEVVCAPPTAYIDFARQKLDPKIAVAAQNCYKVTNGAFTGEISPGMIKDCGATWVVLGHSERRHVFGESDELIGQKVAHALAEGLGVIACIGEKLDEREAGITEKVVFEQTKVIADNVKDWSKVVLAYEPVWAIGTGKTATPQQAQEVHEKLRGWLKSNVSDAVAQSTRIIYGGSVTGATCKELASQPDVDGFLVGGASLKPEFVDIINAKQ

CC(=O)O[C@H](COP(=O)(O)O)[C@@H](OC(C)=O)C(=O)NO
Activity [1]: 229 µM | IC50 [2]: 7 µM | Activity [3]: 229 µM

O=C(NO)[C@H](O)[C@H](O)COP(=O)(O)O
IC50 [2]: 35 µM | Ki [4]: 400 µM and 57 µM

O=C(O)[C@H](O)[C@H](O)COP(=O)(O)O
IC50 [5]: 220 µM

O=C(NO)[C@H](O)[C@H](O)CO
Ki [6]: 100 nM

O=C(NO)[C@@H](O)[C@H](O)[C@H](O)COP(=O)(O)O
Ki [7]: 100 nM

NC(=O)[C@H](O)[C@H](O)COP(=O)(O)O
IC50 [2]: 10 µM | Ki [4]: > 30000 µM

CC1(C)O[C@H](COP(=O)(O)O)[C@H](C(=O)NO)O1
IC50 [2]: 3000 µM

O=C(COP(=O)(O)O)NO [PHOSPHOGLYCOLOHYDROXAMATE]
Ki [8]: 4 µM
